Source: publication PMC7144209, “Design, synthesis and anticancer activity of naphthoquinone derivatives” (Journal of Enzyme Inhibition and Medicinal Chemistry, 2020)

Columns and labels:
L02 = test: MTT cell viability assay, L02 cells; format: cell-based; details: Homo sapiens, n = 3
SGC-7901 = test: MTT cell viability assay, SGC-7901 cells; format: cell-based, human; details: n = 3
Procedure: (§1) MGC-803, SGC-7901, U87 and SMMC-7721 cell lines were cultured in DMEM supplemented with 10% foetal bovine serum, 100 IU/mL penicillin/streptomycin. The cells were incubated in an atmosphere containing 5% CO2 at 37 °C.
(§2) MGC-803, SGC-7901, U87 and SMMC-7721 cells were plated in 96-well plate at 7000 per well. Cells were incubated with the different concentrations of the compounds for 48 h. Subsequently, MTT (0.5 mg/mL) were used to test the cell viability, then 150 μL DMSO was added to each well after cells were incubated for 4 h and the absorbance was measured at 492 nm.

MGC-803 = test: MTT cell viability assay, MGC-803 cells; format: cell-based; details: n = 3
Procedure: as §1, §2

U87 = test: MTT cell viability assay, U87 cells; format: cell-based; details: 48 h, n = 3
Procedure: as §1, §2

[1] = Metabolic stability assay in human liver microsomes; format: in vitro ADME
Procedure: To initially evaluate the stability of compound 12, we then tested the liver microsome stability of this compound. The Mean % Parent Remaining of compound 12 in metabolic stability test were 100, 95, 85, 80, and 70 at 0, 15, 30, 45, and 60 min, respectively.

SMMC-7721 = test: MTT cell viability assay, SMMC-7721 cells; format: cell-based; details: Homo sapiens, 48 h, n = 3
Procedure: as §1, §2

[2] = test system: LC3-II, P62, Beclin1 in SGC-7901 cells; test: Western blot of autophagy-related proteins; format: cell-based, human; details: SGC-7901, Western blot
Procedure: (§3) RIPA lysis buffer was used to dissociate the treated cells. Cells were lysed and the supernatant was harvested after centrifuged for 30 min. The cell proteins were separated using Sodium dodecyl sulphate-polyacrylamide gel electrophoresis, and then they were transferred to the PVDF membranes. The membranes were blocked with skimmed milk solution (5%) for 2 h, then incubated with primary antibodies (1:1000, cst) for 20 h at 4 °C. The membranes were detected by chemiluminescence reagent after probed with the secondary antibody for 1 h.
Autophagy is a process of lysosomal degradation that can deliver the cytoplasmic cargo to the lysosome. To assess whether compound 12 could promote autophagy on SGC-7901 cells, the expressions of autophagy-related proteins were examined. Autophagy will be switched on when LC3-I was converted into LC3-II, and the level of LC3-II involves in the formation of autophagosome. Meanwhile p62 is a marker of the degradative lysosome[43]^,[44]. As shown in Figure 6(A), compound can decrease the level of P62 and increase the expressions of LC3II and Beclin1.

SGC-7901 cells [3] = test: Colony formation assay; format: cell-based, human; details: SGC-7901, 2, 4, 8 μM, 12 d
Procedure: SGC-7901 cells (8000/well) were seeded in 6-well plate, and treated with indicated concentrations of compound 12 (2 μM, 4 μM, 8 μM) for 12 d. The medium was removed and methanol (500 μL/well) was added to fix at the cells for 3 min. Then cells were stained with giemsa working fluid for 15 min and washed with PBS. The number of colonies was counted.

[4] = test system: PI3K/AKT/MTOR signalling pathway; test: Western blot of PI3K/AKT/MTOR pathway; format: cell-based, human
Procedure: as §3
As a therapeutic target for cancer, the PI3K/AKT/MTOR signalling pathway participates in regulating autophagy. Consequently, Western blot experiment was used to explore the impact of compound 12 on the level of phospho-PI3K, phospho-AKT and phospho-mTOR. […] 3-MA (3-methyladenine) is also a PI3K inhibitor[57], so compound 12 (4 μM) with 3-MA (500 μM) were used to treated the cells.

SGC-7901 cells [5] = test: Acridine orange (AO) staining of acidic vesicles; format: cell-based, human; details: SGC-7901, 1, 2, and 4 μM, 48 h
Procedure: PH-sensitive Acridine orange (AO) was used to label acidic vesicles. Human gastric cancer cells were seeded in laser confocal dishes at 10,000/ml. After indicated treatment of compound 12 (1 μM, 2 μM, 4 μM) for 48 h, cells were stained with AO (1 μg/ml) for 15 min at the cell culture incubator. After the cells were washed by PBS, pictures were acquired under laser confocal microscope.
(§4) Another typical feature of autophagy is the accumulation of the acidic autophagic vacuoles (AVOs)[45]^,[46]. To verify the development of AVOs, Acridine Orange (AO) staining was used to examine whether the acidic vesicular organelles in SGC-7901 cells were increased. AO produces red fluorescence when it accumulates in acidic regions such as autophagy lysosomes and lysosomes and produces bright green fluorescence in the cytoplasm and the nucleus. […] GFP-LC3 indicating technique was also used to detect the autophagy at the same time. When autophagy is formed, multiple bright green fluorescent spots will form as the GFP-LC3 fusion protein can translate to autophagosome membrane. From Figure 6(C), compared to the blank control group, GFP-LC3 puncta were increased after cells treated with compound 12 (4 μM) meanwhile decreased after treated with compound 12 (4 μM) and 3-MA (500 μM).

[6] = test system: GFP-LC3 in SGC-7901 cells; test: GFP-LC3 transfection, puncta by confocal microscopy; format: cell-based, human
Procedure: A plasmid GFP-tagged LC3 reporter gene (0.8 μg/500 μL) was transfected into SGC-7901 cells by Lipofectamine 2000, then cells were incubated for 24 h. After different treatments for 24 h, cells were fixed with 4% paraformaldehyde for 20 min, and washed three times with PBS. Finally, Laser confocal dishes were analysed using confocal microscope.
as §4

[7] = test system: SGC-7901, MGC-803, SMMC-7721, U-87 cell lines; test: MTT anticancer activity, summary in words over the cell line panel; format: cell-based; details: MTT assay
Procedure: as §2
Compounds 1–24 were detected for anticancer activities against SGC-7901, MGC-803, SMMC-7721, U-87 cell lines in vitro by the MTT assay, and ADM was used as the positive control. From Table 1, when the phenolic hydroxyls of naphthoquinone moiety were converted to ether, the activity was missing. […] So colony formation assay of this compound (Figure 4) was used to investigate the effect of it on cell proliferation in SGC-7901 cells. The experiment examined the ability for producing colonies after the cells were treated with the cell death agents[35]^,[36].

[8] = compound 12 4 μM with 3-MA 500 μM

- IC50 (SGC-7901; 48 h): 4.1 ± 2.6 µM
- IC50 (SGC-7901; Homo sapiens, SGC-7901, 48 h): 4.09 µM
- IC50 (MGC-803; 48 h): 4.1 ± 0.6 µM
- IC50 (MGC-803; Homo sapiens, MGC-803, 48 h): 4.07 µM
- IC50 (U87): 3.8 ± 0.2 µM
- IC50 (U87; Homo sapiens, U-87 MG): 3.85 µM
- Mean % Parent Remaining ([1]; 0 min): 100%
- Mean % Parent Remaining ([1]; 15 min): 95%
- Mean % Parent Remaining ([1]; 30 min): 85%
- Mean % Parent Remaining ([1]; 45 min): 80%
- Mean % Parent Remaining ([1]; 60 min): 70%
- microsomal CLint ([1]; human, read-out: calculated clearance rate): > 110 µL/min/mg
- half-life ([1]; human, read-out: half-life (t1/2)): > 1 h
- IC50 (SMMC-7721): 20.6 ± 0.4 µM
SMILES: CC(C)=CCC(OC(=O)CCC(=O)Nc1ccc(Oc2ccccc2)cc1)C1=CC(=O)c2c(O)ccc(O)c2C1=O (centres unmarked) [Compound 12, 1-(5,8-dihydroxy-1,4-dioxo-1,4-dihydronaphthalen-2-yl)-4-methylpent-3-en-1-yl-4-oxo-4-((4-phenoxyphenyl)amino)butanoate]
- IC50 (L02): > 50 µM
- expression of Beclin1 [2]: increase
- expression of LC3II [2]: increase
- level of P62 [2]: decrease
- number of colonies vs control (SGC-7901 cells [3]): decreased
- expression of p-AKT ([4]; 1, 2, 4 μM, 48 h): decreased in a dose-dependent manner
- expression of p-MTOR ([4]; 1, 2, 4 μM, 48 h): decreased in a dose-dependent manner
- expression of p-PI3K ([4]; 1, 2, 4 μM, 48 h): decreased in a dose-dependent manner
- ratio of p-AKT/AKT compared with compound 12 alone [4, 8]: increased
- ratio of p-MTOR/MTOR compared with compound 12 alone [4, 8]: increased
- ratio of p-PI3K/PI3K compared with compound 12 alone [4, 8]: increased
- red fluorescently labelled acidic vesicles (AO staining) (SGC-7901 cells [5]): accumulated obviously
- GFP-LC3 puncta vs blank control ([6]; SGC-7901, compound 12 4 μM): increased
- GFP-LC3 puncta ([6]; SGC-7901, compound 12 4 μM and 3-MA 500 μM): decreased
- anticancer activity (in words) [7]: good activity
